Measurements reported in US5324747A, “N-substituted anilines, inhibitors of phospholipases A2” (Hoffmann-La Roche Inc., priority 1992, dated 1994).

Columns and labels:
HSF-PLA2 = target: T1, HSF-PLA2 (Homo sapiens, UniProt P14555); test: Assay for Inhibition of HSF-PLA2 In Vitro; format: biochemical; details: read-out: Inhib of HSF-PLA2 IC50
T1 construct: extracellular enzyme obtained from human synovial fluid (HSF-PLA2); from tissue; host or cells: pooled human synovial fluid, added at 0.1% (v/v)
T1 sequence (P14555 21-144): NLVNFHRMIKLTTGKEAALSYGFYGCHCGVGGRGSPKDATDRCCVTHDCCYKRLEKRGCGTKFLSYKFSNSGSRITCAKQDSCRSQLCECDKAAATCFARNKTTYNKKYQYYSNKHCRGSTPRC
How it was run: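 Extracellular PLA2 isolated from human synovial fluid, incubated 30 min at 37 °C with 14C-labelled phospholipid substrate in duplicate. Lipids were chloroform-extracted, and released 14C-oleic acid was separated from substrate by silica TLC; a no-enzyme control was run in each experiment.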

[1] = system: Acetic Acid-Induced Colitis in Rats; test: Acetic Acid-Induced Colitis in Rats; format: in vivo, rats (Sprague-Dawley)
Description: Acetic Acid-Induced Colitis in Rats The rat acetic acid-induced colitis bioassay has been described by J. E. Krawisz, et al. in Amer. J. Proc. Gastro. Col. Rec. Surg. 31: 11-18 (1980), and by P. Sharon and W. F. Stenson in Gastroenterology 88: 55-63 (1985) and 86:453-460 (1984). Acetic acid-induced colitis is characterized by the movement of inflammatory cells into the colon, with the number of such cells in the mucosa being measured by the activity of myeloperoxidase, a marker enzyme for these cells. Positive desirable activity is indicated by a reduction in the high levels of myeloperoxidase caused by acetic acid. […] The animals were administered a second dose of the test compound in the same amount about 16 hours later. Then 24 hours after the acetic acid treatment, the animals were sacrificed. The colonic mucosa was surgically removed and homogenized in an aqueous buffer at pH 6 with a Tissumizer or similar device and myeloperoxidase was measured in the homogenate using o-phenylenediamine as a cromagen, as described by […] and A. Bartlett in "The Enzyme Linked Immunosorbent Assay (ELISA)", Zoological Soc., London, 1979, pages 29-30. Control animals were pretreated with the vehicle and saline in place of acetic acid.

PLA2 Rat Paw Edema = test: Phospholipase A2 Rat Paw Edema; format: in vivo, Lewis rats
How it was run: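 Lewis rats (~200 g, n=7) dosed i.p. (in DMSO) or orally (in Labrafil M-1944CS) 1 h before subplantar injection of 5 ug Naja naja PLA2 into right hind paw. Paw volume by plethysmometry at 0.5, 2 and 4 hr minus baseline; % change versus vehicle, Student's t-test.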

[2] = system: Naja naja snake venom PLA2 (SV-PLA2); test: Assay for inhibition of snake venom PLA2 (SV-PLA2) in vitro; format: biochemical; details: read-out: Inhib of SV-PLA2 IC50
Method: ASSAY FOR INHIBITION OF SNAKE VENOM PLA2 (SV-PLA2) IN VITRO
Several representative compounds of the invention were also tested as inhibitors of Naja naja snake venom PLA2 (SV-PLA2). The assay employed in this study was the spectrophotometric method described by: C. Vigo, G. P. Lewis and P. J. Piper in Biochemical Pharmacology, 29:623-627 (1983), which was modified as described by: A. F. Welton, L. D. Tobias, C. Fiedler-Nagy, W. Anderson, W. Hope, K. Meyers and J. W. Coffey in "Plant Flavonoids in Biology and Medicine: Biochemical, Pharmacological and Structure-Activity Relationships", p 231-242, (1986) Alan R. Liss, Inc. The PLA2 paw edema model, (data in Table I) is initiated by injection of SV-PLA2.

[3] = system: Croton Oil Mouse Ear Edema; test: Croton Oil Mouse Ear Edema Test; format: in vivo, CD-1 mice; details: topical, coapplied, 6 hours
Method: Twenty five μl of a 1% croton oil solution [dissolved in a mixture of pyridine/water/diethyl ether at a ratio of 5/20/75 (croton oil vehicle)] are applied to the outer side of the right ear of 3-4 week old made CD-1 mice (8 animals per group). The test compounds are dissolved directly in the 1% croton oil solution at various concentrations and coapplied. Control animals receive 25 μl of croton oil vehicle on the right ear. Biopsy punches are removed at 6 hours from the right ear of the animals using a 6 mm skin trephine (Roboz, Washington, D.C.) and the wet weight of the ear punches is determined. The weight of the biopsy punches is a measure of ear inflammation, primarily edema. The data are expressed as percent inhibition relative to control groups.

mouse skin = details: cited from earlier work

Q: Which results are given for `CCCCCCCCCCCCCCOc1cc(OCCCCCCCCCCCCCC)cc(N(CC(=O)O)CC(=O)O)c1` [Example 6e, N-(carboxymethyl)-N-[3,5-bis(tetradecyloxy)phenyl]glycine]?
A: IC50 (HSF-PLA2): 130 nM; % Inhibition of Myeloperoxidase Accumulation at 10 mg/kg po [1]: 145 ± 72%; % Inhib of PLA2 Rat Paw Edema 2 hr (PLA2 Rat Paw Edema; (50 mg/kg)): 44%

Q: For `CCCCCCCCCCNC(=O)c1cc(C(=O)NCCCCCCCCCC)cc(N(CC(=O)O)CC(=O)O)c1` [Example 16, N-(Carboxymethyl)-N-[3,5-bis[(decylamino)carbonyl]phenyl]glycine], which IC50 [2] is on record?
A: The IC50 was 50 nM.

Q: And the IC50 (HSF-PLA2)?
A: Its IC50 is 300 nM.

Q: And the “% Inhib of Croton Oil Mouse Ear Edema (1 mg)” value [3]?
A: The value was 10%.

Q: What about the “% Inhibition of Myeloperoxidase Accumulation at 10 mg/kg po” value [1] of the same compound?
A: Its value is 212 ± 124%.

Q: What about the inhibition in vivo at 30 mg/kg (PLA2 Rat Paw Edema; Rattus norvegicus, 2 hr, 30 mg/kg, read-out: % Inhib of PLA2 Rat Paw Edema 2 hr (30 mg/kg)) of the same compound?
A: Its inhibition in vivo at 30 mg/kg is 0%.

Q: For `CCCCCCCCCCCCCCCCCCOc1cccc(N(CC(=O)O)CC(=O)O)c1` [Example 36, N -(Carboxymethyl)-N-[3-(octadecyloxy)phenyl]glycine], which IC50 (HSF-PLA2) is on record?
A: The IC50 was 170 nM.

Q: And the “% Inhib of Croton Oil Mouse Ear Edema (1 mg)” value [3]?
A: The value was 21%.

Q: What about the “% Inhibition of Myeloperoxidase Accumulation at 10 mg/kg po” value [1] of the same compound?
A: Its value is 190 ± 76%.

Q: What does the source list for `COc1ccc2c(c1)c(CC(=O)O)c(C)n2C(=O)c1ccc(Cl)cc1` [Indomethacin]?
A: TPA-mediated increase in epidermal PGE2 levels (mouse skin): prevented; TPA-mediated induction of epidermal cell ornithine decarboxylase (mouse skin): prevented
